PubChem BioAssay (NCI)
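Interpolation was linear, between the two tested concentrations surrounding the appropriate level; five concentrations were tested over 48 hours in 96-well plates. Abbreviation: GI50, concentration required for 50% inhibition of growth. TGI marks complete inhibition of growth.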

Tests used:
Experiment in all cases: NCI tumour cell line growth inhibition, 48 h
BT-549 breast = test system: BT-549 breast
SN12C renal = test system: SN12C renal
NCI/ADR-RES ovarian = test system: NCI/ADR-RES ovarian
SR leukemia = test system: SR leukemia
SK-OV-3 ovarian = test system: SK-OV-3 ovarian
OVCAR-3 ovarian = test system: OVCAR-3 ovarian
SK-MEL-2 melanoma = test system: SK-MEL-2 melanoma
NCI-H226 lung = test system: NCI-H226 lung
RPMI-8226 leukemia = test system: RPMI-8226 leukemia
MCF7 breast = test system: MCF7 breast
HT29 colon = test system: HT29 colon
PC-3 prostate = test system: PC-3 prostate
SNB-75 CNS = test system: SNB-75 CNS
MDA-MB-435 = test system: MDA-MB-435
ACHN renal = test system: ACHN renal
KM12 colon = test system: KM12 colon
CCRF-CEM leukemia = test system: CCRF-CEM leukemia
RXF 393 renal = test system: RXF 393 renal
MALME-3M melanoma = test system: MALME-3M melanoma
LOX IMVI melanoma = test system: LOX IMVI melanoma
M14 melanoma = test system: M14 melanoma
HCT-15 colon = test system: HCT-15 colon
NCI-H522 lung = test system: NCI-H522 lung
TK-10 renal = test system: TK-10 renal
HL-60(TB) leukemia = test system: HL-60(TB) leukemia
UO-31 renal = test system: UO-31 renal
EKVX NSCLC = test system: EKVX NSCLC
MDA-MB-231 breast = test system: MDA-MB-231 breast
786-0 renal = test system: 786-0 renal
SF-268 CNS = test system: SF-268 CNS
OVCAR-5 ovarian = test system: OVCAR-5 ovarian
SF-539 CNS = test system: SF-539 CNS
HS 578T breast = test system: HS 578T breast
HCT-116 colon = test system: HCT-116 colon
A498 renal = test system: A498 renal
OVCAR-4 ovarian = test system: OVCAR-4 ovarian
CAKI-1 renal = test system: CAKI-1 renal
K-562 leukemia = test system: K-562 leukemia
HOP-62 NSCLC = test system: HOP-62 NSCLC
SNB-19 CNS = test system: SNB-19 CNS
NCI-H460 lung = test system: NCI-H460 lung
SF-295 CNS = test system: SF-295 CNS
SW-620 colon = test system: SW-620 colon
OVCAR-8 ovarian = test system: OVCAR-8 ovarian
HCC-2998 colon = test system: HCC-2998 colon
MOLT-4 leukemia = test system: MOLT-4 leukemia
UACC-257 melanoma = test system: UACC-257 melanoma
MDA-MB-468 breast = test system: MDA-MB-468 breast
NCI-H23 lung = test system: NCI-H23 lung
IGROV1 ovarian = test system: IGROV1 ovarian
UACC-62 melanoma = test system: UACC-62 melanoma
T-47D breast = test system: T-47D breast
HOP-92 NSCLC = test system: HOP-92 NSCLC
COLO 205 colon = test system: COLO 205 colon
SK-MEL-28 melanoma = test system: SK-MEL-28 melanoma
DU-145 prostate = test system: DU-145 prostate

COc1cc2cc(C(=O)N3C[C@@H](CCl)c4c3cc(OC(=O)N(C)CCSSCCN3CCOCC3)c3ccccc43)[nH]c2c(OC)c1OC
GI50 (BT-549 breast): 66.5 nM | TGI (BT-549 breast): 330 nM | GI50 (SN12C renal): 69 nM | TGI (SN12C renal): 1920 nM | GI50 (NCI/ADR-RES ovarian): 362 nM | TGI (NCI/ADR-RES ovarian): 1290 nM | GI50 (SR leukemia): 19.7 nM | TGI (SR leukemia): > 25000 nM | GI50 (SK-OV-3 ovarian): 107 nM | TGI (SK-OV-3 ovarian): 925 nM | GI50 (OVCAR-3 ovarian): 575 nM | TGI (OVCAR-3 ovarian): 1630 nM | GI50 (SK-MEL-2 melanoma): 210 nM | TGI (SK-MEL-2 melanoma): 463 nM | GI50 (NCI-H226 lung): 29.5 nM | TGI (NCI-H226 lung): 122 nM | GI50 (RPMI-8226 leukemia): 1000 nM | TGI (RPMI-8226 leukemia): > 25000 nM | GI50 (MCF7 breast): 45.7 nM | TGI (MCF7 breast): 2240 nM | GI50 (HT29 colon): 496 nM | TGI (HT29 colon): > 8760 nM | GI50 (PC-3 prostate): 214 nM | TGI (PC-3 prostate): > 25000 nM | GI50 (SNB-75 CNS): 348 nM | TGI (SNB-75 CNS): 921 nM | GI50 (MDA-MB-435): 141 nM | TGI (MDA-MB-435): 361 nM | GI50 (ACHN renal): 19.3 nM | TGI (ACHN renal): 554 nM | GI50 (KM12 colon): 286 nM | TGI (KM12 colon): > 8850 nM | GI50 (CCRF-CEM leukemia): 281 nM | TGI (CCRF-CEM leukemia): > 25000 nM | GI50 (RXF 393 renal): 28 nM | TGI (RXF 393 renal): 95.1 nM | GI50 (MALME-3M melanoma): 229 nM | TGI (MALME-3M melanoma): 673 nM | GI50 (LOX IMVI melanoma): 41.7 nM | TGI (LOX IMVI melanoma): 334 nM | GI50 (M14 melanoma): 69.9 nM | TGI (M14 melanoma): 318 nM | GI50 (HCT-15 colon): 335 nM | TGI (HCT-15 colon): 2990 nM | GI50 (NCI-H522 lung): 1330 nM | TGI (NCI-H522 lung): 7370 nM | GI50 (TK-10 renal): 819 nM | TGI (TK-10 renal): 3120 nM | GI50 (HL-60(TB) leukemia): 251 nM | TGI (HL-60(TB) leukemia): 4950 nM | GI50 (UO-31 renal): 69.2 nM | TGI (UO-31 renal): 452 nM | GI50 (EKVX NSCLC): 178 nM | TGI (EKVX NSCLC): 844 nM | GI50 (MDA-MB-231 breast): 270 nM | TGI (MDA-MB-231 breast): 1180 nM | GI50 (786-0 renal): 196 nM | TGI (786-0 renal): 1050 nM | GI50 (SF-268 CNS): 45.4 nM | TGI (SF-268 CNS): > 25000 nM | GI50 (OVCAR-5 ovarian): 228 nM | TGI (OVCAR-5 ovarian): 1060 nM | GI50 (SF-539 CNS): 25.7 nM | TGI (SF-539 CNS): 116 nM | GI50 (HS 578T breast): 627 nM | TGI (HS 578T breast): 1970 nM | GI50 (HCT-116 colon): 612 nM | TGI (HCT-116 colon): > 25000 nM | GI50 (A498 renal): 272 nM | TGI (A498 renal): 1330 nM | GI50 (OVCAR-4 ovarian): 621 nM | TGI (OVCAR-4 ovarian): 1830 nM | GI50 (CAKI-1 renal): 137 nM | TGI (CAKI-1 renal): 5730 nM | GI50 (K-562 leukemia): 608 nM | TGI (K-562 leukemia): > 25000 nM | GI50 (HOP-62 NSCLC): 29.4 nM | TGI (HOP-62 NSCLC): 511 nM | GI50 (SNB-19 CNS): 95 nM | TGI (SNB-19 CNS): 2550 nM | GI50 (NCI-H460 lung): 26.3 nM | TGI (NCI-H460 lung): > 9660 nM | GI50 (SF-295 CNS): 87.2 nM | TGI (SF-295 CNS): 1470 nM | GI50 (SW-620 colon): 865 nM | TGI (SW-620 colon): > 25000 nM | GI50 (OVCAR-8 ovarian): 125 nM | TGI (OVCAR-8 ovarian): 1520 nM | GI50 (HCC-2998 colon): 154 nM | TGI (HCC-2998 colon): 575 nM | GI50 (MOLT-4 leukemia): 51.9 nM | TGI (MOLT-4 leukemia): > 25000 nM | GI50 (UACC-257 melanoma): 642 nM | TGI (UACC-257 melanoma): 4320 nM | GI50 (MDA-MB-468 breast): 133 nM | TGI (MDA-MB-468 breast): 505 nM | GI50 (NCI-H23 lung): 33.3 nM | TGI (NCI-H23 lung): 164 nM | GI50 (IGROV1 ovarian): 358 nM | TGI (IGROV1 ovarian): 1460 nM | GI50 (UACC-62 melanoma): 130 nM | TGI (UACC-62 melanoma): 482 nM | GI50 (T-47D breast): 1010 nM | TGI (T-47D breast): 5720 nM | GI50 (HOP-92 NSCLC): 1130 nM | TGI (HOP-92 NSCLC): > 18600 nM | GI50 (COLO 205 colon): 1150 nM | TGI (COLO 205 colon): 2680 nM | GI50 (SK-MEL-28 melanoma): 128 nM | TGI (SK-MEL-28 melanoma): 293 nM | GI50 (DU-145 prostate): 34.1 nM | TGI (DU-145 prostate): > 25000 nM
